Columns and labels:
Cbl-b [1] = biological target: T1, Cbl-b (Homo sapiens, UniProt Q13191); test: Cbl-b inhibition assay (Cbl-b activity assay, FRET, Biological Example 1; 100 mM NaCl, 60 nM Src kinase); assay type: biochemical; conditions: upper bound stated in text lists; read-out: IC50 values in the Cbl-b inhibition assay of Biological Example 1
In short: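 N-terminally biotinylated Avi-tagged Cbl-b was mixed with Src kinase, UbcH5B covalently conjugated to Bodipy-fluorescein ubiquitin, and streptavidin-terbium. Src phosphorylation lets Cbl-b bind UbcH5B-Ub, giving terbium-fluorescein FRET; inhibition is read as loss of FRET signal.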

T-cell [2] = test: IL-2 secretion from T-cells co-stimulated with anti-CD3 and anti-CD28 antibody (Biological Example 2); assay type: cell-based, human; conditions: Homo sapiens, T-cell, fold change over baseline (anti-CD3/anti-CD28 stimulated T-cells without inhibitor), read-out: IL-2 secretion Anti-CD3/Anti-CD28 stimulation; for fold induction at 0.3 µM: 0.3 μM Cbl-b inhibitor; for fold induction at 1 µM: 1 μM Cbl-b inhibitor
In short: (§1)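 T-cells were stimulated with anti-CD3 antibody alone or with anti-CD28 antibody, in the presence or absence of Cbl-b inhibitor. IL-2 secretion or CD25 surface staining was measured, and values expressed as fold over the uninhibited baseline […].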

T-cell [3] = test: IL-2 secretion from T-cells stimulated with anti-CD3 antibody alone (Biological Example 2); assay type: cell-based, human; conditions: Homo sapiens, T-cell; 1 μM Cbl-b inhibitor; fold change over baseline (anti-CD3/anti-CD28 stimulated T-cells without inhibitor); read-out: IL-2 secretion Anti-CD3 stimulation
T-cell [4] = test: CD25 cell surface staining on T-cells co-stimulated with anti-CD3 and anti-CD28 antibody (Biological Example 2); assay type: cell-based, human; conditions: Homo sapiens, T-cell, fold change over baseline (anti-CD3/anti-CD28 stimulated T-cells without inhibitor), read-out: CD25 staining Anti-CD3/Anti-CD28 stimulation; for fold induction at 0.3 µM: 0.3 μM Cbl-b inhibitor; for fold induction at 1 µM: 1 μM Cbl-b inhibitor
In short: as §1

T-cell [5] = test: CD25 cell surface staining on T-cells stimulated with anti-CD3 antibody alone (Biological Example 2); assay type: cell-based, human; conditions: Homo sapiens, T-cell; 1 μM Cbl-b inhibitor; fold change over baseline (anti-CD3/anti-CD28 stimulated T-cells without inhibitor); read-out: CD25 staining Anti-CD3 stimulation
Cbl-b [6] = biological target: T1, Cbl-b; test: Cbl-b activity assay (Cbl-b inhibition assay), TR-FRET of Cbl-b interaction with UbcH5B-Ub; assay type: biochemical; conditions: assay buffer with 100 mM NaCl, 60 nM Src kinase; read-out: Cbl-b activity IC50
In short: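 UbcH5B (C85K) conjugated to N-terminally Bodipy-Fluorescein-labeled ubiquitin served as the fluorescent partner. After compound preincubation, Src kinase (60 nM) with 1 mM ATP and 5 mM MgCl2 (final) was added for 1.5 h, followed by a further 1 h incubation. Some values were obtained with 50 mM NaCl and 30 nM Src.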

T1 sequence (Q13191 36-427): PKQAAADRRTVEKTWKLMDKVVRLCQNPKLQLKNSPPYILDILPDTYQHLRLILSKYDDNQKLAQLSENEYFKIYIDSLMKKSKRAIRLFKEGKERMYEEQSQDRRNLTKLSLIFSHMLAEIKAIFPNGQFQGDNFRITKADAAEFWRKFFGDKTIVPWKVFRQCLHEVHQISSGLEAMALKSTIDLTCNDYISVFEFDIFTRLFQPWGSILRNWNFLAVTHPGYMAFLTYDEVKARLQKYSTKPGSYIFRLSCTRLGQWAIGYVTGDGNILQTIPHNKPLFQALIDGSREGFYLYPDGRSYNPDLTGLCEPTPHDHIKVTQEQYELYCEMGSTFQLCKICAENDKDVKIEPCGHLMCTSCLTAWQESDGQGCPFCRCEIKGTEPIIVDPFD

SMILES | IC50 (Cbl-b [1]) | fold induction at 0.3 µM (T-cell [2]) | fold induction at 1 µM (T-cell [2]) | fold induction at 1 µM (T-cell [3]) | fold induction at 0.3 µM (T-cell [4]) | fold induction at 1 µM (T-cell [4]) | fold induction at 1 µM (T-cell [5]) | IC50 (Cbl-b [6])
Cn1cnnc1[C@H](F)C1(c2cccc(N3Cc4c(cc(CN5[C@@H]6CC[C@H]5C[C@@H](F)C6)cc4C(F)(F)F)C3=O)c2)COC1 [Example 672b, 2-(3-(3-((R)-fluoro(4-methyl-4H-1,2,4-triazol-3-yl)methyl)oxetan-3-yl)phenyl)-6-(((1R,3R,5S)-3-fluoro-8-azabicyclo[3.2.1]octan-8-yl)methyl)-4-(trifluoromethyl)isoindolin-1-one] | ≤ 100 nM | > 7.5 | > 7.5 | > 0.201 | > 1.76 | > 1.76 | > 1 | < 100 nM
Cn1cnnc1[C@@H](F)C1(c2cccc(N3Cc4c(cc(CN5CCCC5)cc4C(F)(F)F)C3=O)c2)COC1 [Example 673a, (S)-2-(3-(3-(fluoro(4-methyl-4H-1,2,4-triazol-3-yl)methyl)oxetan-3-yl)phenyl)-6-(pyrrolidin-1-ylmethyl)-4-(trifluoromethyl)isoindolin-1-one] | ≤ 100 nM | 5 to 7.5 | > 7.5 | > 0.201 | > 1.76 | > 1.76 | 0.801 to 1 | < 100 nM
Cn1cnnc1[C@H](F)C1(c2cccc(N3Cc4c(cc(CN5CCCC5)cc4C(F)(F)F)C3=O)c2)COC1 [Example 673b, (R)-2-(3-(3-(fluoro(4-methyl-4H-1,2,4-triazol-3-yl)methyl)oxetan-3-yl)phenyl)-6-(pyrrolidin-1-ylmethyl)-4-(trifluoromethyl)isoindolin-1-one] | ≤ 100 nM | > 7.5 | > 7.5 | > 0.201 | 1.31 to 1.5 | 1.31 to 1.5 | > 1 | < 100 nM
Cn1cnnc1[C@@H](F)C1(c2cccc(N3Cc4c(cc(CN5CCCCC5)cc4C(F)(F)F)C3=O)c2)COC1 [Example 674a, (S)-2-(3-(3-(fluoro(4-methyl-4H-1,2,4-triazol-3-yl)methyl)oxetan-3-yl)phenyl)-6-(piperidin-1-ylmethyl)-4-(trifluoromethyl)isoindolin-1-one] | ≤ 100 nM | > 7.5 | > 7.5 | 0.101 to 0.15 | 1.31 to 1.5 | 1.51 to 1.75 | > 1 | < 100 nM
Cn1cnnc1[C@H](F)C1(c2cccc(N3Cc4c(cc(CN5CCCCC5)cc4C(F)(F)F)C3=O)c2)COC1 [Example 674b, (R)-2-(3-(3-(fluoro(4-methyl-4H-1,2,4-triazol-3-yl)methyl)oxetan-3-yl)phenyl)-6-(piperidin-1-ylmethyl)-4-(trifluoromethyl)isoindolin-1-one] | ≤ 100 nM | > 7.5 | > 7.5 | > 0.201 | 1.01 to 1.3 | 1.01 to 1.3 | > 1 | < 100 nM
Cn1cnnc1[C@@H](F)C1(c2cccc(N3Cc4c(cc(CN5C6CCCC5CC6)cc4C(F)(F)F)C3=O)c2)COC1 [Example 675a, 6-((8-azabicyclo[3.2.1]octan-8-yl)methyl)-2-(3-(3-((S)-fluoro(4-methyl-4H-1,2,4-triazol-3-yl)methyl)oxetan-3-yl)phenyl)-4-(trifluoromethyl)isoindolin-1-one] | ≤ 100 nM | 2.51 to 5 | 5 to 7.5 | 0.101 to 0.15 | 1.01 to 1.3 | 1.31 to 1.5 | > 1 | < 100 nM
Cn1cnnc1[C@H](F)C1(c2cccc(N3Cc4c(cc(CN5C6CCCC5CC6)cc4C(F)(F)F)C3=O)c2)COC1 [Example 675b, 6-((8-azabicyclo[3.2.1]octan-8-yl)methyl)-2-(3-(3-((R)-fluoro(4-methyl-4H-1,2,4-triazol-3-yl)methyl)oxetan-3-yl)phenyl)-4-(trifluoromethyl)isoindolin-1-one] | ≤ 100 nM | > 7.5 | > 7.5 | > 0.201 | 1.31 to 1.5 | 1.31 to 1.5 | > 1 | < 100 nM
Cc1cc(C(=O)Nc2cccc(C3(C(F)(F)c4nncn4C)COC3)c2)nc(C2CC2)n1 [Example 676, 2-cyclopropyl-N-(3-(3-(difluoro(4-methyl-4H-1,2,4-triazol-3-yl)methyl)oxetan-3-yl)phenyl)-6-methylpyrimidine-4-carboxamide] | ≤ 100 nM | 2.51 to 5 | 5 to 7.5 | 0.101 to 0.15 | 1.01 to 1.3 | 1.31 to 1.5 | 0.801 to 1 | < 100 nM
Cc1cc2c(c(C3CC3)n1)CN(c1cccc(C3(C(F)(F)c4nncn4C)COC3)c1)C2=O [Example 677, 4-cyclopropyl-2-(3-(3-(difluoro(4-methyl-4H-1,2,4-triazol-3-yl)methyl)oxetan-3-yl)phenyl)-6-methyl-2,3-dihydro-1H-pyrrolo[3,4-c]pyridin-1-one] | ≤ 1000 nM | 1.01 to 2.5 | 1.01 to 2.5 | 0.051 to 0.1 | 1.01 to 1.3 | 1.01 to 1.3 | 0.601 to 0.8 | 301 to 1000 nM
Cn1cnnc1C(F)(F)C1(c2cccc(N3Cc4c(cc(CN5CC(F)C5)cc4C(F)(F)F)C3=O)c2)COC1 [Example 679, 2-(3-(3-(difluoro(4-methyl-4H-1,2,4-triazol-3-yl)methyl)oxetan-3-yl)phenyl)-6-((3-fluoroazetidin-1-yl)methyl)-4-(trifluoromethyl)isoindolin-1-one] | ≤ 100 nM | 2.51 to 5 | 5 to 7.5 | 0.101 to 0.15 | 1.01 to 1.3 | 1.01 to 1.3 | > 1 | < 100 nM
C[C@H](Cc1nncn1C)c1cc(C2CC2)nc(N2Cc3c(cccc3C(F)(F)F)C2=O)c1 [Example 680, (R)-2-(6-cyclopropyl-4-(1-(4-methyl-4H-1,2,4-triazol-3-yl)propan-2-yl)pyridin-2-yl)-4-(trifluoromethyl)isoindolin-1-one] | ≤ 100 nM | 1.01 to 2.5 | 2.51 to 5 | 0.101 to 0.15 | 1.01 to 1.3 | 1.01 to 1.3 | 0.801 to 1 | < 100 nM
C[C@H](Cc1nncn1C)c1cc(N2Cc3c(cccc3C(F)(F)F)C2=O)nc(C2(C)CC2)c1 [Example 681, (R)-2-(4-(1-(4-methyl-4H-1,2,4-triazol-3-yl)propan-2-yl)-6-(l-methylcyclopropyl)pyridin-2-yl)-4-(trifluoromethyl)isoindolin-1-one] | ≤ 1000 nM | 1.01 to 2.5 | 1.01 to 2.5 | 0.051 to 0.1 | 1.01 to 1.3 | 1.01 to 1.3 | < 0.6 | 301 to 1000 nM
C[C@H](Cc1nncn1C)c1cc(-c2cncs2)nc(N2Cc3c(cccc3C(F)(F)F)C2=O)c1 [Example 682, (R)-2-(4-(1-(4-methyl-4H-1,2,4-triazol-3-yl)propan-2-yl)-6-(thiazol-5-yl)pyridin-2-yl)-4-(trifluoromethyl)isoindolin-1-one] | ≤ 1000 nM | 1.01 to 2.5 | 1.01 to 2.5 | 0.051 to 0.1 | 1.01 to 1.3 | 1.01 to 1.3 | < 0.6 | 301 to 1000 nM
C[C@H](Cc1nncn1C)c1cc(C2CCOCC2)nc(N2Cc3c(cccc3C(F)(F)F)C2=O)c1 [Example 686, (R)-2-(4-(1-(4-methyl-4H-1,2,4-triazol-3-yl)propan-2-yl)-6-(tetrahydro-2H-pyran-4-yl)pyridin-2-yl)-4-(trifluoromethyl)isoindolin-1-one] | ≤ 1000 nM | 1.01 to 2.5 | 1.01 to 2.5 | < 0.05 | 1.01 to 1.3 | 1.01 to 1.3 | < 0.6 | 301 to 1000 nM
